Patent US20240217989A1, “Heteroaryl Fluoroalkenes As DGK Inhibitors” (Incyte Corporation, priority 2022, published 2024)

What was measured:
DGKα = target: T1, DGKα (Homo sapiens, UniProt P23743); assay: In vitro DGKα inhibition assay (ADP-Glo); assay type: biochemical; settings: His-tagged human recombinant enzyme; 0.1 nM DGKα, 50 μM ATP, 20 μM DLG; 90 minute incubation; ADP-Glo luminescence
T1 construct: His; purchased Signal Chem D21-10BH
Experimental: (§1) The DGKα and DGKζ biochemical reactions were performed using His-tagged human recombinant enzymes (Signal Chem, DGKα, #D21-10BH; DGKζ, #D30-10H)) and DLG (Dilauroyl-sn-glycerol) lipid substrate (Signal Chem, #D430-59). ADP-Glo assay was performed using ADP-Glo™ kinase Assay kit (Promega, #V9104). The reactions were carried out in assay buffer containing 40 mM Tris, pH 7.5, 0.1% CHAPS, 0.1% Prionex, 40 mM NaCl, 5 mM MgCl2, 1 mM CaCl2, and 1 mM DTT. DGKα reactions contained 0.1 nM DGKα, 50 μM ATP, and 20 μM DLG. And DGKζ reactions contained 0.4 nM DGKζ, 30 μM ATP, and 20 μM DLG. For compound inhibition studies, 40 nL test compound in DMSO was added to wells of white polystyrene plates in 384-well (Greiner, #784075) or 1536-well format (Greiner, #782075). Compounds were added with top concentration of 2 mM with 11 point, 3-fold dilution series. Enzyme solution (contains 2× DGK enzyme concentration in 1× assay buffer) was added to the plate in 2 μL/well volume, followed by 2 μL/well of substrate solution (contains 2× concentration of ATP and DLG substrate in 1× assay buffer). Plates were then centrifuged for 1 min at 1200 RPM and sealed or lidded. For 4 μL reaction volume, test compounds were therefore diluted 100× to final top concentration of 20 μM. After 90 minute incubation, reactions were quenched by addition of 2 μL/well Promega ADP-Glo Reagent, followed by centrifugation and lidding. After 60 min incubation, 2 μL/well Promega Kinase Detection Reagent was added, plates centrifuged, and incubated for 30 min. Plates were then read using Luminescence method on BMG PHERAstar FSX plate reader. Percent inhibition was calculated and IC50s were determined using 4-parameter fit in Genedata Screener. Labcyte Echo acoustic dispenser was used for compound addition, and Formulatrix Tempest liquid handler was used for all reagent dispenses.

DGKζ = DGKζ (Homo sapiens, UniProt Q13574); assay: In vitro DGKζ inhibition assay (ADP-Glo); assay type: biochemical; settings: His-tagged human recombinant enzyme; 0.4 nM DGKζ, 30 μM ATP, 20 μM DLG; 90 minute incubation; ADP-Glo luminescence
DGKζ, sequence (Q13574 whole entry): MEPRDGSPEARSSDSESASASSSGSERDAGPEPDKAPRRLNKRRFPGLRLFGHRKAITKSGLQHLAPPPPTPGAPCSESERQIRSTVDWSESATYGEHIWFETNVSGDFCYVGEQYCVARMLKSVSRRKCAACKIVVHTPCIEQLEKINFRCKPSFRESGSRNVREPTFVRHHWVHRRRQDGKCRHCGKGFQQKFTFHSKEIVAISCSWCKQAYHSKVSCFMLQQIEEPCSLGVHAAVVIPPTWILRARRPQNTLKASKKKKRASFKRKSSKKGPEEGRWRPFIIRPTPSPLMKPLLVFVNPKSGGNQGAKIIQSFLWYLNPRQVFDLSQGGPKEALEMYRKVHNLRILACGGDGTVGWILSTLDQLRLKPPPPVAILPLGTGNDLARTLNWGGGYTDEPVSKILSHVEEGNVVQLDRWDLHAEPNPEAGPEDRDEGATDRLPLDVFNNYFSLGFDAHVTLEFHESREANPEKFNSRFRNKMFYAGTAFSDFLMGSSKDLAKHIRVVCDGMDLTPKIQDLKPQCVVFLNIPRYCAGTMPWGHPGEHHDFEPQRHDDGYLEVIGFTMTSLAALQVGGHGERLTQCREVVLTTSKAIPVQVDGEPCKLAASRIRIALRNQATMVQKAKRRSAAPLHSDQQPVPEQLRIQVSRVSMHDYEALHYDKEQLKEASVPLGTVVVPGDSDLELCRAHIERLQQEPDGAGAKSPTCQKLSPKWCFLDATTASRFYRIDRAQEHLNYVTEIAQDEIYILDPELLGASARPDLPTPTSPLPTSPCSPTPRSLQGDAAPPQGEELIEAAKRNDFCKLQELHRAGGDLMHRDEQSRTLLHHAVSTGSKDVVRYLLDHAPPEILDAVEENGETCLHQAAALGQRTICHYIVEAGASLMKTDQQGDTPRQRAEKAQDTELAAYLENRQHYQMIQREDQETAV
Experimental: as §1

T1 sequence (P23743 whole entry): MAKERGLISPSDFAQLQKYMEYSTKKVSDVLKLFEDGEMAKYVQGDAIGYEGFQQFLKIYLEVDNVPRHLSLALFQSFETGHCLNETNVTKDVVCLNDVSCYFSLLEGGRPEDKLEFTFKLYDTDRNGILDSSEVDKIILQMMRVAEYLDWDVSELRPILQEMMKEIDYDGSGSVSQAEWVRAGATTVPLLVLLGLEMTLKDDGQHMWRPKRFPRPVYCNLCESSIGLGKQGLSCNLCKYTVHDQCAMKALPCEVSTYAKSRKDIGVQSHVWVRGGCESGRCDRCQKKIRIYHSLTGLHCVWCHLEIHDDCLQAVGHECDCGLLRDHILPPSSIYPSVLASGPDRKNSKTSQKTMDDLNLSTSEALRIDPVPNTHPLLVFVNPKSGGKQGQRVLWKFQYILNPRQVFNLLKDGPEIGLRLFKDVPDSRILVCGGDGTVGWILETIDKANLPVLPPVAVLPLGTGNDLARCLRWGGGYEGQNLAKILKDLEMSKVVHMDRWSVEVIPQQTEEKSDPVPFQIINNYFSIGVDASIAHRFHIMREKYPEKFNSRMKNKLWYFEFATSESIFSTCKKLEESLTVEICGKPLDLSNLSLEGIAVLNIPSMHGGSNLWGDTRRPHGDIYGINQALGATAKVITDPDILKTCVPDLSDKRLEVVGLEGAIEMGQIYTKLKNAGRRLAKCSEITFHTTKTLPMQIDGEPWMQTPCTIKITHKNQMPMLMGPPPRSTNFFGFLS

| IC50 (DGKα) [µM] | IC50 (DGKζ) [µM] | Structure (SMILES) |
| --- | --- | --- |
| 0.02 to 0.2 | 0.02 to 0.2 | NC[C@@H]1CCCN(c2c(/C=C(\F)c3cc4nccnc4c(N4CC(F)(F)C4)n3)ccc(Oc3ccccc3F)c2C(F)(F)F)C1 [Example 1, (S,Z)-(1-(6-(2-(5-(3,3-Difluoroazetidin-1-yl)pyrido[3,4-b]pyrazin-7-yl)-2-fluorovinyl)-3-(2-fluorophenoxy)-2-(trifluoromethyl)phenyl)piperidin-3-yl)methanamine] |
| – | ≤ 0.02 | NC[C@@H]1CCCN(c2c(/C=C(\F)c3cncc(-c4ccns4)n3)ccc(Oc3ccccc3F)c2C(F)(F)F)C1 [Example 4, (S,Z)-(1-(6-(2-Fluoro-2-(6-(isothiazol-5-yl)pyrazin-2-yl)vinyl)-3-(2-fluorophenoxy)-2-(trifluoromethyl)phenyl)piperidin-3-yl)methanamine] |
| ≤ 0.02 | 0.02 to 0.2 | CN(CCCN)c1c(/C=C(\F)c2cccc(-c3ccnnc3)n2)ccc(Oc2ccccc2)c1C(F)(F)F [Example 5, (Z)-N1-(6-(2-Fluoro-2-(6-(pyridazin-4-yl)pyridin-2-yl)vinyl)-3-phenoxy-2-(trifluoromethyl)phenyl)-N1-methylpropane-1,3-diamine] |
| 0.02 to 0.2 | ≤ 0.02 | COCCN1CCC2(CC1)CN(c1c(/C=C(\F)c3cncc(-c4ccnnc4)n3)ccc(Oc3ccccc3)c1C(F)(F)F)CCO2 [Example 11, (Z)-4-(6-(2-Fluoro-2-(6-(pyridazin-4-yl)pyrazin-2-yl)vinyl)-3-phenoxy-2-(trifluoromethyl)phenyl)-9-(2-methoxyethyl)-1-oxa-4,9-diazaspiro[5.5]undecane] |
| – | ≤ 0.02 | NC[C@H]1CCCN1c1c(/C=C(\F)c2cncc(-c3ccnnc3)n2)ccc(Oc2ccccc2)c1Cl [Example 12, (R,Z)-(1-(2-Chloro-6-(2-fluoro-2-(6-(pyridazin-4-yl)pyrazin-2-yl)vinyl)-3-phenoxyphenyl)pyrrolidin-2-yl)methanamine] |
| ≤ 0.02 | ≤ 0.02 | NC[C@H]1CCCN1c1c(/C=C(\F)c2nccc(-c3ccnnc3)n2)ccc(Oc2ccccc2)c1Cl [Example 13, (R,Z)-(1-(2-Chloro-6-(2-fluoro-2-(4-(pyridazin-4-yl)pyrimidin-2-yl)vinyl)-3-phenoxyphenyl)pyrrolidin-2-yl)methanamine] |
| ≤ 0.02 | ≤ 0.02 | F/C(=C\c1ccc(Oc2ccccc2)c(C(F)(F)F)c1N1CCCC2(CCN(CC3CC3)CC2)C1)c1cncc(N2CC(F)(F)C2)n1 [Example 15, (Z)-9-(Cyclopropylmethyl)-2-(6-(2-(6-(3,3-difluoroazetidin-1-yl)pyrazin-2-yl)-2-fluorovinyl)-3-phenoxy-2-(trifluoromethyl)phenyl)-2,9-diazaspiro[5.5]undecane] |
| ≤ 0.02 | ≤ 0.02 | [2H]c1c([2H])c([2H])c(Oc2ccc(/C=C(\F)c3cncc(N4CC(F)(F)C4)n3)c(N3CCCC4(CCN(CC)CC4)C3)c2C(F)(F)F)c([2H])c1[2H] [Example 18, (Z)-2-(6-(2-(6-(3,3-Difluoroazetidin-1-yl)pyrazin-2-yl)-2-fluorovinyl)-3-(phenoxy-d5)-2-(trifluoromethyl)phenyl)-9-ethyl-2,9-diazaspiro[5.5]undecane] |

The next lines start with the molecule.

| Structure (SMILES) | IC50 (DGKα) [µM] | IC50 (DGKζ) [µM] |
| --- | --- | --- |
| NC[C@@H]1CCCN(c2c(/C=C(\F)c3cn4ccnc4c(N4CC(F)(F)C4)n3)ccc(Oc3ccccc3F)c2C(F)(F)F)C1 [Example 2, (S,Z)-(1-(6-(2-(8-(3,3-Difluoroazetidin-1-yl)imidazo[1,2-a]pyrazin-6-yl)-2-fluorovinyl)-3-(2-fluorophenoxy)-2-(trifluoromethyl)phenyl)piperidin-3-yl)methanamine] | ≤ 0.02 | ≤ 0.02 |
| N#Cc1ncc(N2CC(F)(F)C2)nc1/C(F)=C/c1ccc(Oc2ccccc2F)c(C(F)(F)F)c1N1CCC[C@@H](CN)C1 [Example 3, (S,Z)-3-(2-(2-(3-(Aminomethyl)piperidin-1-yl)-4-(2-fluorophenoxy)-3-(trifluoromethyl)phenyl)-1-fluorovinyl)-5-(3,3-difluoroazetidin-1-yl)pyrazine-2-carbonitrile] | ≤ 0.02 | ≤ 0.02 |
| COc1cc(F)ccc1Oc1ccc(/C=C(\F)c2nccc(-c3ccnnc3)n2)c(N2CCC[C@@H](CN)C2)c1Cl [Example 6, (S,Z)-(1-(2-Chloro-6-(2-fluoro-2-(4-(pyridazin-4-yl)pyrimidin-2-yl)vinyl)-3-(4-fluoro-2-methoxyphenoxy)phenyl)piperidin-3-yl)methanamine] | ≤ 0.02 | ≤ 0.02 |
| COc1cc(F)ccc1Oc1ccc(/C=C(\F)c2ccnc(-c3ccnnc3)n2)c(N2CCC[C@@H](CN)C2)c1Cl [Example 7, (S,Z)-(1-(2-Chloro-6-(2-fluoro-2-(2-(pyridazin-4-yl)pyrimidin-4-yl)vinyl)-3-(4-fluoro-2-methoxyphenoxy)phenyl)piperidin-3-yl)methanamine] | ≤ 0.02 | ≤ 0.02 |
| COc1cc(F)ccc1Oc1ccc(/C=C(\F)c2nncc(N3CCC(F)(F)C3)n2)c(N2CCC[C@@H](CN)C2)c1Cl [Example 8, (S,Z)-(1-(2-Chloro-6-(2-(5-(3,3-difluoropyrrolidin-1-yl)-1,2,4-triazin-3-yl)-2-fluorovinyl)-3-(4-fluoro-2-methoxyphenoxy)phenyl)piperidin-3-yl)methanamine] | ≤ 0.02 | ≤ 0.02 |
| F/C(=C\c1ccc(Oc2ccccc2)c(C(F)(F)F)c1N1CCOC2(CCNCC2)C1)c1cncc(-c2ccnnc2)n1 [Example 9, (Z)-4-(6-(2-Fluoro-2-(6-(pyridazin-4-yl)pyrazin-2-yl)vinyl)-3-phenoxy-2-(trifluoromethyl)phenyl)-1-oxa-4,9-diazaspiro[5.5]undecane] | ≤ 0.02 | ≤ 0.02 |
| F/C(=C\c1ccc(Oc2ccccc2)c(C(F)(F)F)c1N1CCOC2(CCN(CC3CC3)CC2)C1)c1cncc(-c2ccnnc2)n1 [Example 10, (Z)-9-(Cyclopropylmethyl)-4-(6-(2-fluoro-2-(6-(pyridazin-4-yl)pyrazin-2-yl)vinyl)-3-phenoxy-2-(trifluoromethyl)phenyl)-1-oxa-4,9-diazaspiro[5.5]undecane] | ≤ 0.02 | ≤ 0.02 |
| CCN1CCC2(CC1)CN(c1c(/C=C(\F)c3cncc(-c4ccnnc4)n3)ccc(OC3CC3)c1C(F)(F)F)CCO2 [Example 14, (Z)-4-(3-Cyclopropoxy-6-(2-fluoro-2-(6-(pyridazin-4-yl)pyrazin-2-yl)vinyl)-2-(trifluoromethyl)phenyl)-9-ethyl-1-oxa-4,9-diazaspiro[5.5]undecane] | 0.02 to 0.2 | 0.02 to 0.2 |
| CCN1CCC2(CCCN(c3c(/C=C(\F)c4cncc(N5CC(F)(F)C5)n4)ccc(Oc4ccccc4)c3C(F)(F)F)C2)CC1 [Example 16, (Z)-2-(6-(2-(6-(3,3-Difluoroazetidin-1-yl)pyrazin-2-yl)-2-fluorovinyl)-3-phenoxy-2-(trifluoromethyl)phenyl)-9-ethyl-2,9-diazaspiro[5.5]undecane] | 0.02 to 0.2 | ≤ 0.02 |
| [2H]c1c([2H])c([2H])c(Oc2ccc(/C=C(\F)c3cncc(N4CC(F)(F)C4)n3)c(N3CCCC4(CCN(CC5CC5)CC4)C3)c2C(F)(F)F)c([2H])c1[2H] [Example 17, (Z)-9-(Cyclopropylmethyl)-2-(6-(2-(6-(3,3-difluoroazetidin-1-yl)pyrazin-2-yl)-2-fluorovinyl)-3-(phenoxy-d5)-2-(trifluoromethyl)phenyl)-2,9-diazaspiro[5.5]undecane] | ≤ 0.02 | ≤ 0.02 |
| F/C(=C\c1ccc(Oc2ccccc2)c(C(F)(F)F)c1N1CCCC2(CCN(CC3CC3)CC2)C1)c1cncc(N2CCC(F)(F)C2)n1 [Example 19, (Z)-9-(Cyclopropylmethyl)-2-(6-(2-(6-(3,3-difluoropyrrolidin-1-yl)pyrazin-2-yl)-2-fluorovinyl)-3-phenoxy-2-(trifluoromethyl)phenyl)-2,9-diazaspiro[5.5]undecane] | ≤ 0.02 | ≤ 0.02 |
| CCN1CCC2(CCCN(c3c(/C=C(\F)c4cncc(N5CCC(F)(F)C5)n4)ccc(Oc4ccccc4)c3C(F)(F)F)C2)CC1 [Example 20, (Z)-2-(6-(2-(6-(3,3-Difluoropyrrolidin-1-yl)pyrazin-2-yl)-2-fluorovinyl)-3-phenoxy-2-(trifluoromethyl)phenyl)-9-ethyl-2,9-diazaspiro[5.5]undecane] | ≤ 0.02 | ≤ 0.02 |
| [2H]c1c([2H])c([2H])c(Oc2ccc(/C=C(\F)c3cncc(N4CCC(F)(F)C4)n3)c(N3CCCC4(CCN(CC5CC5)CC4)C3)c2C(F)(F)F)c([2H])c1[2H] [Example 21, (Z)-9-(Cyclopropylmethyl)-2-(6-(2-(6-(3,3-difluoropyrrolidin-1-yl)pyrazin-2-yl)-2-fluorovinyl)-3-(phenoxy-ds)-2-(trifluoromethyl)phenyl)-2,9-diazaspiro[5.5]undecane] | ≤ 0.02 | ≤ 0.02 |
